Some test systems named below: HOP-18; OVCAR-4; DLD-1; A549; UACC-257; LOX IMVI; DMS-273; NCI-H522; OVCAR-5; SNB-78; M19-MEL; HOP-62; CCRF-CEM; A498; NCI/ADR-RES; MCF7.
Common to all, as to assay: NCI anticancer screen, dose series, 48 h

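Assay format: 96-well plates, 48-hour exposure. GI50 is the concentration that inhibits growth by half.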 Calls of active or inactive are those of the source. Cut-off read from the data, not from the text of the source: active = GI50 up to about 1.1 µM and inactive = higher.

For the compound `CC1NC(=O)C2=C1C(N)=NC(=O)C2` (centres undefined), the GI50 in the assay with HOP-18, with OVCAR-4, with DLD-1, in the assay on A549, with UACC-257 and with LOX IMVI was > 100 µM (inactive) in each case. In addition, the GI50 in the assay on DMS-273, in the assay with NCI-H522, in the assay with OVCAR-5, in the assay with SNB-78 and in the assay with M19-MEL was > 100 µM (inactive) in each case.
Turning to `CC(C)(O)/C=C/C(=O)[C@](C)(O)[C@H]1[C@H](O)C[C@@]2(C)[C@@H]3CC=C4[C@@H](C[C@H](O)C(=O)C4(C)C)[C@]3(C)C(=O)C[C@]12C` [CUCURBITACIN D], the GI50 in the assay on HOP-18 is 0.0748 µM (active); in the assay with DLD-1 it was 0.0863 µM (active); in the assay on HOP-62 it was 0.198 µM (active); in the assay on A549, 0.177 µM (active); in the assay with UACC-257, 0.0968 µM (active); in the assay on LOX IMVI, 0.0562 µM (active). Moreover, the GI50 is 0.034 µM (active) in the assay on DMS-273; 0.0687 µM (active) with CCRF-CEM; 0.128 µM (active) in the assay with NCI-H522; 0.0506 µM (active) in the assay with A498; 1.04 µM (active) in the assay on OVCAR-5; 0.0867 µM (active) in the assay on SNB-78. Further, in the assay on M19-MEL, the GI50 is 0.391 µM (active).
Take `CC(=O)n1nnc2ccc([N+](=O)[O-])cc21`: the GI50 in the assay with HOP-18 was 90.6 µM (inactive); in the assay with OVCAR-4 it was > 100 µM (inactive); with DLD-1, > 100 µM (inactive); with HOP-62, > 100 µM (inactive); in the assay on A549, > 100 µM (inactive); in the assay with UACC-257 it was > 100 µM (inactive). Further, the GI50 in the assay with LOX IMVI, in the assay on DMS-273, in the assay with CCRF-CEM, with NCI-H522, in the assay with OVCAR-5 and in the assay on SNB-78 was > 100 µM (inactive) throughout. In addition, the GI50 with M19-MEL was > 100 µM (inactive).
Turning to `CCOC(=O)/C=C1\Oc2ccccc2C1(C)O` (centres undefined), the GI50 in the assay with HOP-18, in the assay with OVCAR-4, in the assay with DLD-1, in the assay on HOP-62, with A549 and with UACC-257 was > 100 µM (inactive) each time. Moreover, the GI50 in the assay with LOX IMVI, with DMS-273, in the assay with CCRF-CEM, in the assay on NCI-H522, with A498 and with OVCAR-5 was > 100 µM (inactive) each time. Besides, the GI50 in the assay with SNB-78 and in the assay with M19-MEL was > 100 µM (inactive) throughout.
Turning to `NC(=O)c1ccccc1NC(=O)C(=O)Nc1n[nH]c(N)n1`, the GI50 in the assay on HOP-18, in the assay with OVCAR-4, with DLD-1, with HOP-62, in the assay with A549 and in the assay on UACC-257 was > 100 µM (inactive) each time. Moreover, the GI50 with LOX IMVI, with DMS-273, in the assay with CCRF-CEM, in the assay on NCI-H522, with A498 and with OVCAR-5 was > 100 µM (inactive) throughout. Also, the GI50 in the assay with SNB-78 and in the assay on M19-MEL was > 100 µM (inactive) each time.
As for `CC1=C(C(=O)Nc2ccccc2C)C(c2ccc(Cl)c(Cl)c2)C(C(=O)Nc2ccccc2C)=C(C)N1`, the GI50 was 22.9 µM (inactive) with HOP-18; 16.4 µM (inactive) in the assay on OVCAR-4; 27.9 µM (inactive) in the assay with DLD-1; 28.6 µM (inactive) in the assay with HOP-62; 24.2 µM (inactive) with A549; 19.9 µM (inactive) in the assay on UACC-257. The GI50 with LOX IMVI was 20.9 µM (inactive); in the assay on DMS-273 it was 16.7 µM (inactive); in the assay with CCRF-CEM, 22.7 µM (inactive); in the assay with NCI-H522 it was 14.5 µM (inactive); in the assay with A498 it was 27.5 µM (inactive); in the assay on OVCAR-5, 23.1 µM (inactive). The GI50 with SNB-78 is 29.4 µM (inactive); in the assay with M19-MEL it was 19.7 µM (inactive).
Take `C#C[C@H](CCCC)OC(=O)N[C@H](C)c1ccccc1`: the GI50 in the assay on HOP-18 is > 100 µM (inactive); in the assay on OVCAR-4, 42 µM (inactive); in the assay on DLD-1, 55.2 µM (inactive); with HOP-62 it was > 100 µM (inactive); with A549, 36.1 µM (inactive); in the assay on UACC-257, 24.8 µM (inactive). Besides, the GI50 in the assay with LOX IMVI is 33.2 µM (inactive); with DMS-273, 38.8 µM (inactive); in the assay on CCRF-CEM it was 34.6 µM (inactive); with NCI-H522, 29.2 µM (inactive); in the assay on OVCAR-5, 48 µM (inactive); in the assay on SNB-78 it was 70 µM (inactive). Moreover, the GI50 with M19-MEL is 30.5 µM (inactive).
For `COC(=O)/C=c1\s/c(=C\C(=O)OC)c2ccccc12`, the GI50 in the assay with HOP-18 is > 100 µM (inactive); in the assay with OVCAR-4, > 100 µM (inactive); in the assay with DLD-1 it was 6.28 µM (inactive); in the assay with A549, > 100 µM (inactive); in the assay with UACC-257 it was > 100 µM (inactive); in the assay on LOX IMVI it was > 100 µM (inactive). Besides, the GI50 is 6.44 µM (inactive) in the assay on DMS-273; > 100 µM (inactive) with CCRF-CEM; > 100 µM (inactive) in the assay with NCI-H522; > 100 µM (inactive) in the assay with A498; > 100 µM (inactive) in the assay with OVCAR-5; > 100 µM (inactive) in the assay on SNB-78. Also, the GI50 in the assay on M19-MEL was > 100 µM (inactive).
In the case of `CCCCCC[N+](C)(C)Cc1ccc(C[N+](C)(C)CCCCCC)cc1`, the GI50 in the assay on HOP-18 is 4.69 µM (inactive); with OVCAR-4, 4.58 µM (inactive); with DLD-1 it was 4.42 µM (inactive); with HOP-62 it was 3.05 µM (inactive); in the assay on A549, 3.36 µM (inactive); in the assay with UACC-257, 10.8 µM (inactive). For the same compound, the GI50 in the assay with LOX IMVI is 2.09 µM (inactive); with DMS-273 it was 1.83 µM (inactive); with CCRF-CEM it was 2.73 µM (inactive); in the assay on NCI-H522, 1.74 µM (inactive); in the assay on A498, 11.2 µM (inactive); in the assay on OVCAR-5, 10.9 µM (inactive). The GI50 with SNB-78 is 1.16 µM (inactive); with M19-MEL it was 1.94 µM (inactive).
Regarding `COc1ccc2c(c1)O[C@H]1c3ccc(O)cc3OC[C@@H]21`, the GI50 with HOP-18 is 93.5 µM (inactive); in the assay with OVCAR-4, 34.6 µM (inactive); in the assay with DLD-1, 34.8 µM (inactive); in the assay with HOP-62 it was 45.5 µM (inactive); in the assay on A549, 28.6 µM (inactive); in the assay on UACC-257, 21.8 µM (inactive). Moreover, the GI50 in the assay on LOX IMVI is 13 µM (inactive); with DMS-273, 30.9 µM (inactive); with CCRF-CEM, 19.2 µM (inactive); in the assay with NCI-H522 it was 22.7 µM (inactive); in the assay on OVCAR-5, 48.6 µM (inactive); in the assay on SNB-78 it was 29.2 µM (inactive). For the same compound, the GI50 in the assay with M19-MEL was 18 µM (inactive).
On to `CC(=O)OC(C)C(=O)C1c2cccc(O)c2C(=O)c2c(O)cc(C)cc21` (centres undefined), for which the GI50 was 1.12 µM (inactive) in the assay with HOP-18; 0.452 µM (active) in the assay on OVCAR-4; 1.75 µM (inactive) in the assay on DLD-1; 0.343 µM (active) with HOP-62; 0.322 µM (active) with A549; 0.41 µM (active) in the assay with UACC-257. For the same compound, the GI50 was 0.483 µM (active) in the assay with LOX IMVI; 0.634 µM (active) in the assay on DMS-273; 0.711 µM (active) in the assay on CCRF-CEM; 1.52 µM (inactive) in the assay with NCI-H522; 1.59 µM (inactive) in the assay on A498; 1.31 µM (inactive) with OVCAR-5. For the same compound, the GI50 was 0.753 µM (active) in the assay on SNB-78 and 0.367 µM (active) in the assay with M19-MEL.
For `COc1ccc2c(c1)c(=O)c1ccccc1n2/C=C/C(=O)O`, the GI50 was > 100 µM (inactive) in the assay on HOP-18; > 100 µM (inactive) in the assay with OVCAR-4; > 47 µM (inactive) in the assay with DLD-1; > 100 µM (inactive) in the assay on HOP-62; > 100 µM (inactive) in the assay with A549; > 100 µM (inactive) in the assay with UACC-257. Moreover, the GI50 with LOX IMVI is > 46.9 µM (inactive); in the assay on DMS-273, > 41.3 µM (inactive); in the assay on CCRF-CEM it was > 48.4 µM (inactive); with NCI-H522, > 100 µM (inactive); with A498, > 100 µM (inactive); in the assay with OVCAR-5, > 100 µM (inactive). Further, the GI50 in the assay on SNB-78 was > 100 µM (inactive).
With `Cc1cc(O)nc(NNC(C#N)c2ccc(O)cc2)n1` (centres undefined), the GI50 in the assay on HOP-18, in the assay with OVCAR-4, in the assay on DLD-1, in the assay with HOP-62, in the assay with A549 and in the assay with UACC-257 was > 100 µM (inactive) in each case. Besides, the GI50 is > 100 µM (inactive) in the assay on LOX IMVI; > 100 µM (inactive) with DMS-273; > 100 µM (inactive) in the assay on CCRF-CEM; > 100 µM (inactive) in the assay on NCI-H522; > 100 µM (inactive) in the assay on OVCAR-5; 83.8 µM (inactive) with SNB-78. Besides, the GI50 in the assay on M19-MEL is > 100 µM (inactive).
Regarding `CC(SC1=CC(=O)c2c(O)ccc(O)c2C1=O)C(=O)O` (centres undefined), the GI50 was > 55.3 µM (inactive) in the assay on HOP-18; 17 µM (inactive) in the assay on OVCAR-4; > 39.8 µM (inactive) in the assay with DLD-1; > 100 µM (inactive) in the assay on HOP-62; 97.3 µM (inactive) with A549; 35.5 µM (inactive) in the assay with UACC-257. For the same compound, the GI50 with LOX IMVI was > 41.2 µM (inactive); in the assay on DMS-273 it was > 60.4 µM (inactive); in the assay on CCRF-CEM, 3.08 µM (inactive); in the assay with NCI-H522, 1.51 µM (inactive); in the assay on A498, > 62.7 µM (inactive); in the assay with OVCAR-5, > 100 µM (inactive). Moreover, the GI50 with SNB-78 is > 47.4 µM (inactive).
With `COc1ccc2nc3c(C(=O)NCCN(C)C)cccc3cc2c1`, the GI50 was > 100 µM (inactive) in the assay on HOP-18; 2.6 µM (inactive) in the assay on OVCAR-4; 2.16 µM (inactive) in the assay on DLD-1; 2.63 µM (inactive) with HOP-62; 1.41 µM (inactive) with NCI/ADR-RES; 1.49 µM (inactive) with A549. The GI50 in the assay on UACC-257 was 2.11 µM (inactive); in the assay with LOX IMVI, 1.63 µM (inactive); in the assay on DMS-273 it was 1.28 µM (inactive); in the assay with CCRF-CEM, 1.78 µM (inactive); in the assay with A498, 1.36 µM (inactive); in the assay on OVCAR-5, 2.1 µM (inactive). Further, the results for the GI50 in the assay on SNB-78 and in the assay with MCF7 were 3.76 µM (inactive) and 1.35 µM (inactive), respectively.

For the origin of these results see ChEMBL document CHEMBL1201862, “PubChem BioAssay data set” (2004).
